Tested on: clots formed from pooled rabbit plasma with rabbit blood cells
Assay: In vitro sonothrombolysis (STBL) of clots with MBs, CPDL, tPA and/or 450 nm StNPs, pulsed 1 MHz ultrasound
Settings: pulsed 1 MHz ultrasound 15 min, in bovine calf serum, 0.5 mL/min; control ultrasound alone; 3 μm MBs, 0.1 mg/ml tPA, 0.06% w/V CPDL nanoemulsion
Description: FIG. 1 depicts a graph showing the potentiation of sonothrombolysis (STBL) efficacy by microbubbles (MBs) and/or a nanoemulsion of cyclopentadecanolide with or without tissue plasminogen activator (tPA). […] STBL was performed with fibrin-rich clots (see Example 2) using pulsed, 1 MHz ultrasound for 15 min. The MBs, tPA, StNPs etc. were suspended in bovine calf serum and introduced at a flow rate of 0.5 mL/min. STBL efficacy is reported as % clot lysis. Abbreviations: US=ultrasound; MBs=microbubbles; CPDL=cyclopentadecanolide; StNPs=starch nanoparticles; tPA=tissue plasminogen activator.
The clots used in these experiments were formed by mixing pooled rabbit plasma with rabbit blood cells (final volume equal to 2 mL; the volume of whole rabbit blood from which the cells were obtained), incubating this mixture for 24 h at 37° C. and then curing the formed clots for 24 h at 5° C. […] The StNPs were diluted to have an Optical Density reading at 530 nm (OD530) of 1.0. […] STBL efficacy was measured as the percent of the initial clot mass that was lost from the clot during the 15 min treatment time.

How did the “STBL efficacy (FIG. 1), in words” value turn out when `O=C1CCCCCCCCCCCCCCO1` [CPDL, cyclopentadecanolide] was run?
Its value is “improved STBL efficacy markedly”.
